Experimental data as given in patent US8436187B2, “1-heterocyclylsulfonyl, 3-aminomethyl, 5- (hetero-) aryl substituted 1-H-pyrrole derivatives as acid secretion inhibitors” (Takeda Pharmaceutical Company Limited, priority 2005, dated 2013).

Columns and labels:
[1] = biological target: T1, proton, potassium-adenosine triphosphatase (H+,K+-ATPase) (Sus scrofa, UniProt P19156); assay: H+,K+-ATPase inhibitory activity test; type: biochemical; conditions: swine gastric mucous membrane microsomal fraction; pH 6.5, 37° C.
T1 construct: The obtained microsomal fraction was used as a proton, potassium—adenosine triphosphatase standard product; from tissue; host or cells: swine stomach, gastric mucous membrane microsomal fraction
T1 sequence (P19156 2-1034 limits assumed): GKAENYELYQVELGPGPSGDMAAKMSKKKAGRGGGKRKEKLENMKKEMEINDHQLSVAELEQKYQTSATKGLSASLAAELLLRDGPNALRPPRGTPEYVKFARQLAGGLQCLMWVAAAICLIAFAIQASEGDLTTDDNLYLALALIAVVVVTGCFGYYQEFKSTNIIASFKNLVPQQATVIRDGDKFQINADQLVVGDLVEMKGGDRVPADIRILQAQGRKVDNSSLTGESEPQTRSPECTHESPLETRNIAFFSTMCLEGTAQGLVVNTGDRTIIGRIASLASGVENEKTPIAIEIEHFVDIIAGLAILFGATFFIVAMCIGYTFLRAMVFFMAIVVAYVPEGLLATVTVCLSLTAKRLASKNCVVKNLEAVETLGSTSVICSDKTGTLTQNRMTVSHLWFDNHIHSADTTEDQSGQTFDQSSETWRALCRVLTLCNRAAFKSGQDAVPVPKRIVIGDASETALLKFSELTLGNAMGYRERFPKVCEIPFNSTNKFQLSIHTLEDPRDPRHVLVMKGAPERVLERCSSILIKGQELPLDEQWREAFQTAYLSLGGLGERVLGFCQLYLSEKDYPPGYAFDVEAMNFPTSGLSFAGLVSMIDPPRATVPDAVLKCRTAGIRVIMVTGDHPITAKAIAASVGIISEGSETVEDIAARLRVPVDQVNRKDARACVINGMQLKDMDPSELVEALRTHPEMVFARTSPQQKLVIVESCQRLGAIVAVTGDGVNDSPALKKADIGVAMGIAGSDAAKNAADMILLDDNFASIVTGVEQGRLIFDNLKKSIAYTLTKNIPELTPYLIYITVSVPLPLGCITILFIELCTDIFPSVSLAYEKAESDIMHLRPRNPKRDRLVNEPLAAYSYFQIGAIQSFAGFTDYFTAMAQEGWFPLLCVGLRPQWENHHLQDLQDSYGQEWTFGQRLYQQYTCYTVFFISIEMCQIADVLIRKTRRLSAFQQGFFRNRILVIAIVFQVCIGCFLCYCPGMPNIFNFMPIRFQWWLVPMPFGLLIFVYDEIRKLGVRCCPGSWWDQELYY
T1 sequence (P18434 whole entry partner): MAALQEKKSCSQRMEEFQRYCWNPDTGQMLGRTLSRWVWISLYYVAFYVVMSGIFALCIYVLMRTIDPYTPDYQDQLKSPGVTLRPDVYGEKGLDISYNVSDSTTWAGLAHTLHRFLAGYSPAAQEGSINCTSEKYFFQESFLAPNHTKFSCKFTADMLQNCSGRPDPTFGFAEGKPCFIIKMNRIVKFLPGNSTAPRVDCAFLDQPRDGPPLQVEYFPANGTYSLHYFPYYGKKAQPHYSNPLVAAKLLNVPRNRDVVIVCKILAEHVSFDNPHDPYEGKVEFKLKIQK
Description: According to the method [Biochim. Biophys. Acta, 728, 31 (1983)] of Wallmark et al., a gastric mucous membrane microsomal fraction was prepared from the stomach of swine. First, the stomach was removed, washed with tap water, immersed in 3 mol/L brine, and the surface of the mucous membrane was wiped with a paper towel. The gastric mucous membrane was detached, chopped, and homogenized in a 0.25 mol/L saccharose solution (pH 6.8) containing 1 mmol/L EDTA and 10 mmol/L tris-hydrochloric acid using polytron (Kinematica). The obtained homogenate was centrifuged at 20,000×g for 30 min and the supernatant was centrifuged at 100,000×g for 90 min. The precipitate was suspended in 0.25 mol/L saccharose solution, superimposed on a 0.25 mol/L saccharose solution containing 7.5% Ficoll, and centrifuged at 100,000×g for 5 hr. […]
To 40 μL of a 50 mmol/L HEPES-tris buffer (5 mmol/L magnesium chloride, 10 mmol/L potassium chloride, 10 […], pH=6.5) containing 2.5 μg/mL (based on the protein concentration) of the enzyme standard product was added a test compound (5 μL) dissolved in a 10% aqueous dimethyl sulfoxide solution, and the mixture was incubated at 37° C. for 30 min. […] After allowing to stand at room temperature for 15 min, the resulting reaction product of inorganic phosphorus with malachite green was colorimetrically determined at a wavelength of 610 nm. […]

[2] = tested on: Human liver cancer-derived cell line HepG2; assay: intracellular ATP content in HepG2 cells (ATPLite); type: cell-based; conditions: HepG2, culture for one day, relative value to control (without drug), n≧3, average
Description: Human liver cancer-derived cell line HepG2 (ATCC No. HB-8065) was passaged using Dulbecco's Modified Eagle medium (DMEM; Invitrogen) containing 10% fetal bovine serum (FBS; TRACE SCIENTIFIC LTD.), 1 mmol/L sodium pyruvate (Invitrogen), 2 mmol/L L-glutamine (Invitrogen), 50 IU/mL penicillin (Invitrogen) and 50 μg/mL streptomycin (Invitrogen) at 5% CO2. 37° C. The test reagent was prepared with DMSO to 10 mM, and further diluted with DMEM medium containing 0.5% FBS, 1 mmol/L sodium pyruvate, 2 mmol/L L-glutamine, 50 IU/mL penicillin and 50 μg/mL streptomycin to a final concentration of DMSO of 0.1%. HepG2 (2×10^4 cells/well) was cultured on a 96 well white plate (Costar) with the test reagent at 5% CO2, 37° C. After culture for one day, the intracellular ATP content was measured using ATPLite™ (PerkinElmer Life Sciences). The results are shown in Table 24 (n≧3, average value±SD) as a relative value (%) to control (without addition of drug) at 30 μM.

IC50 [1]	ATP content (%, 30 μM) [2]	SMILES
34 nM	76.5%	CNCc1cc(-c2ccccc2)n(S(=O)(=O)c2ccc(C)nc2)c1.Cl.Cl [Example 24, N-methyl-1-{1-[(6-methylpyridin-3-yl)sulfonyl]-5-phenyl-1H-pyrrol-3-yl}methanamine dihydrochloride]
8.9 nM	53.6%	CNCc1cc(-c2ccc(Cl)cc2F)n(S(=O)(=O)c2cccnc2)c1.Cl.Cl [Example 34, 1-[5-(4-chloro-2-fluorophenyl)-1-(pyridin-3-ylsulfonyl)-1H-pyrrol-3-yl]-N-methylmethanamine dihydrochloride]
